Assay results as given in patent US20230381142A1, “ANTILEISHMANIAL COMPOUNDS, COMPOSITIONS AND USE THEREOF” (TRUSTEES OF BOSTON UNIVERSITY, priority 2022, published 2023).
Where two headings read alike, the source gives them in different places.

Key:
[1] = tested on: L. donovani intracellular amastigotes in B10R cells; assay: UCSD L. donovani infection assay (Assay Conditions D); format: cell-based; conditions: B10R cells
Procedure: (§1) Assay Conditions D: B10R cells (CVCL_0155) were seeded at 300 cells/well, and L. donovani WT promastigotes in stationary phase (7th day after passage) were added at 6,000 parasites/well (ratio of 20 parasites/cell). Both cells and parasites were seeded in DMEM High-Glucose medium (Gibco, cat. no. 11995065) containing 5% Fetal Bovine Serum (Sigma-Aldrich, cat. no. F2442) and 1% Penicillin-Streptomycin (Gibco, cat. no. 15140122). Cells and parasites were incubated in the presence of the compounds for 72 h at 37° C. and 5% C02. Plates were then fixed with 4% formaldehyde solution for at least 1 h, then washed with 1×PBS and stained with 5 μg/mL DAPI. Plates were read using an ImageXpress microscope (Molecular Devices) and analyzed by MetaXpress software (Molecular Devices) using a custom module optimized for this assay. […] Compounds were tested in a 10-point 2-fold serial dilution in 3 technical replicates, and 2 biological replicates. After 72 h, plates were fixed and stained with DAPI as described above. Images were acquired on an ImageXpress microscope, and analyzed using the MetaXpress custom module.
as §1, with “Compounds were obtained as 0.2 μmoles of dried film for primary single point screening. Each compound was diluted in DMSO to 10 μM final testing concentration. These compounds were tested in 2 biological replicates. The compounds were pre-spotted onto 384-well assay plates in single concentration.” for “Assay Conditions D:”, “CO2.” for “C02.”, “module. The DRCs were plotted, half-effective concentration (EC50) and half-cytotoxic concentration (CC50) were calculated using GraphPad Prism Software, version 6.05 (GraphPad Software, San Diego, CA).” for “module.”

[2] = tested on: L. donovani intracellular amastigotes infecting THP-1 macrophages; assay: GSK intramacrophage L. donovani assay (LD AMMAC, inMac; Assay Conditions C); format: cell-based; conditions: Leishmania donovani; THP-1 cells; values marked c; read-out: L. donovani amastigotes EC50 (THP-1 cells)
Procedure: Assay Conditions C: The intramacrophage Leishmania donovani activity assay was performed as described in Antimicrob Agents Chemother (2013) 57(7):2913-22.
(§2) The intramacrophage Leishmania donovani activity assay (LD AMMAC) at GlaxoSmithKline was performed as described.
(§3) Given the literature precedents described above and the apparent narrow tolerance for R^3 substitutions observed in the primary screen compounds, a thorough and methodical assessment was undertaken of tolerated groups at the three points of diversity (R^1/R^2/R^3) for the core. At this stage of the project, all analogues were assessed using a battery of assays performed in-house at GlaxoSmithKline. For antileishmanial activity, GSK's inMac assay was utilized. This assay provides two readouts of compound potency: average number of intracellular amastigotes per infected cell (AMMAC) EC50, percentage of infected cells per well (INFCELL) EC50, as well as a toxicity output derived from the number of host cells (MAC EC50). In addition, compounds were assessed for toxicity against HepG2 cells (HEPG2 EC50). Here, AMMAC EC50 values were focused on for relative potency assessments. […] It should be noted that for all compounds assessed in this project, the measured toxicity against THP-1 macrophages either equaled or exceeded that of HepG2 hepatocytes, therefore the MAC SI is used here as the more conservative estimate of therapeutic index.

[3] = GSK inMac assay, host cell toxicity readout (LD MAC); format: cell-based, human; conditions: human
Procedure: as §2, §3

[4] = footnote c, read-out: THP-1 Host Cell CC50

Row | Compound | L. donovani amastigotes EC75 (μM, B10R cells) [1] [µM] | EC50 [2] [µM] | CC50 [3, 4] [µM] | CC50 ([3]; host THP-1 cells) [µM]
1 | CC(C)Cc1n[nH]c2c1C(c1ccccc1Cl)N(c1ccc(C(=O)N3CCCC3)cc1)C2=O (stereo not shown) [BUCMD00727] | >10 | – | – | –
2 | COc1ncc(N2C(=O)c3[nH]nc(CC(C)C)c3C2c2ccc(Cl)cc2F)cc1F (stereo not shown) [BUCMD00731] | >10 | – | – | –
3 | COc1ncc(N2C(=O)c3[nH]nc(CC(C)C)c3C2c2ccccc2Cl)cc1F (stereo not shown) [BUCMD00732] | 1.9 | – | – | –
4 | COc1ncc(N2C(=O)c3[nH]nc(CC(C)C)c3C2c2ccccc2C)cc1F (stereo not shown) [BUCMD00733] | 1.0 | – | – | –
5 | COc1ncc(N2C(=O)c3[nH]nc(CC(C)C)c3C2c2ccc(F)cc2F)cc1F (stereo not shown) [BUCMD00734] | 1.5 | – | – | –
6 | C#CCCCCOc1ccc(N2C(=O)c3[nH]nc(CC(C)C)c3C2c2ccc(F)cc2)cn1 (stereo not shown) [BUCMD00739] | >10 | – | – | –
7 | COc1ccc(N2C(=O)c3[nH]nc(CC(C)C)c3C2c2c(Cl)cccc2Cl)cc1 (stereo not shown) [BUCMD00797] | – | 1 | 2.5 | –
8 | CC(C)Cc1n[nH]c2c1C(c1ccccc1Br)N(CCN1CCCC1)C2=O (stereo not shown) [BUCMD00798] | – | 31.6 | > 50 | –
9 | CC(C)Cc1n[nH]c2c1C(c1ccccc1Cl)N(CCN1CCCC1)C2=O (stereo not shown) [BUCMD00799] | – | 20 | > 50 | –
10 | COc1ccc(N2C(=O)c3[nH]nc(CC(C)C)c3C2c2ccc(F)cc2C)cc1 (stereo not shown) [BUCMD00800] | – | 0.5 | 25.1 | –
11 | COc1ccc(N2C(=O)c3[nH]nc(CC(C)C)c3C2c2ccnnc2)cc1 (stereo not shown) [BUCMD00801] | – | > 50 | > 50 | –
12 | COc1ccc(N2C(=O)c3[nH]nc(CC(C)C)c3C2c2ccc(F)c(C(F)(F)F)c2)cc1 (stereo not shown) [BUCMD00802] | – | 5 | 25.1 | –
13 | COc1cc(N2C(=O)c3[nH]nc(CC(C)C)c3C2c2cccc(C(F)(F)F)c2)cc(OC)c1OC (stereo not shown) [BUCMD00803] | – | 5 | 12.6 | –
14 | CC(C)Cc1n[nH]c2c1C(c1cccc(C(F)(F)F)c1)N(c1ccc3ncnn3c1)C2=O (stereo not shown) [BUCMD00804] | – | 7.9 | ≥ 50.1 | –
15 | CC(C)Cc1n[nH]c2c1C(c1ccc(F)cc1)N(c1cccc(C#N)c1)C2=O (stereo not shown) [BUCMD00806] | – | 25.1 | > 50 | –
16 | CC(C)Cc1n[nH]c2c1C(c1ccc(F)cc1)N(c1ccc(C#N)cc1)C2=O (stereo not shown) [BUCMD00807] | – | 12.6 | 25.1 | –
17 | COc1ccc(N2C(=O)c3[nH]nc(CC(C)C)c3C2c2ccc(F)cc2)cn1 (stereo not shown) [BUCMD00808] | – | 10 | > 50 | –
18 | CCn1nc(CC(C)C)c2c1C(=O)N(c1ccc(OC)cc1)C2c1ccc(F)cc1 (stereo not shown) [BUCMD00809] | – | 4 | 39.8 | –
19 | CCn1nc2c(c1CC(C)C)C(c1ccc(F)cc1)N(c1ccc(OC)cc1)C2=O (stereo not shown) [BUCMD00810] | – | 20 | > 50 | –
20 | COc1ccc(N2C(=O)c3[nH]nc(-c4ccc(OCc5ccccc5)cc4)c3C2c2ccc(F)cc2)cc1 (stereo not shown) [BUCMD00811] | – | 10 | 15.8 | –
21 | COc1ccc(N2C(=O)c3[nH]nc(CC4CCCCC4)c3C2c2ccc(F)cc2)cc1 (stereo not shown) [BUCMD00812] | – | 3.2 | 20 | –
22 | COCn1nc(CC(C)C)c2c1C(=O)N(c1ccc(OC)cc1)C2c1ccc(F)cc1 (stereo not shown) [BUCMD00813] | – | 12.6 | 31.6 | –
23 | COCn1nc2c(c1CC(C)C)C(c1ccc(F)cc1)N(c1ccc(OC)cc1)C2=O (stereo not shown) [BUCMD00814] | – | 12.6 | > 50 | –
24 | CC(C)Cc1n[nH]c2c1C(c1ccc(F)cc1)N(c1ccc(-n3ccnc3)cc1)C2=O (stereo not shown) [BUCMD00815] | – | 2.5 | > 50 | –
25 | COc1ccc(N2C(=O)c3c(c(CC(C)C)nn3C)C2c2ccc(Br)cc2)cc1 (stereo not shown) [CMLD006598] | – | – | – | ≥ 50.1
